Assay results taken from article PMC12489660, “Multitargeted Caffeic Acid Derivatives Inhibit Cardiac RyR2- and NaV1.5- Channels but Stimulate SERCA2a Pump Activity” (ACS Omega, 2025).
Values joined by “and” are separate entries in the source; they are usually repeats but may differ in a detail not shown here. Identical values can stand only once.

Tests used:
[1] = set-up: method as in earlier work; details: class low in parentheses; ref (number not given); cited from earlier work
[2] = target: human NaV1.5 (Homo sapiens, UniProt Q14524); experiment: FLIPR membrane potential assay on CHO NaV1.5 Duo cells (veratridine-induced); assay type: cell-based; details: for effect on NaV1.5 activity (in words): concentration range 0.1 to 100 μM; for NaV1.5 activity in CHO cells: 10 μM, percentage from the control sample (100%), mean ± SEM
[3] = target: T1, wild type mouse RyR2 (Mus musculus, UniProt E9Q401); experiment: Time-lapse [Ca2+]ER assay in HEK-293 RyR2 R-CEPIA1er cells (RyR2 activity assay); assay type: cell-based; details: 25 μM; for effect on RyR2 activity / [Ca2+]ER (in words): vs control 0.1 v/v% DMSO; for RyR2 activity: percentage from the control sample (100%), mean ± SEM;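 on all read-outs here: ER Ca2+ read as R-CEPIA1er fluorescence ratio F/F0 (F0 mean of initial 90 s, F mean of final 100 s), compared with vehicle-treated control wells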
T1 construct: expressed in transfected cells; host or cells: HEK-293 cells stably expressing WT RyR2 and R-CEPIA1er (gift of Dr. Takashi Murayama), induced with doxycycline

[4] = target: T2, SERCA2a (Mus musculus, UniProt O55143); experiment: NADH-coupled ATPase assay on microsomal membrane vesicles from mouse heart ventricles (mouse SER); assay type: biochemical; details: for effect on SERCA2a ATPase activity (in words) / ATPase activity of SERCA2a in mouse SER: 10 μM; for effect on SERCA2a ATPase activity (in words): mouse SER; for ATPase activity of SERCA2a in mouse SER: percentage from the control sample (100%), mean ± SEM; for EC50: kinetic rate of NADH–NAD+ conversion, Figure S10: 200 µM free Ca2+
T2 construct: from tissue; host or cells: adult mouse heart ventricles, microsomal membrane vesicles
Experimental: To this end, we tracked the rate of nicotinamide adenine dinucleotide (NADH) oxidation linked to ATP hydrolysis by observing changes in NADH fluorescence over time. This was done after addition of ATP to solutions containing microsomal membranes enriched with SER vesicles isolated from adult mouse heart ventricles (mouse SER). The NADH fluorescence decrease was recorded on a FlexStation 3 Multimode Microplate Reader. […] We detected the highest increase in ATPase activity (up to 118%), when the vesicles were treated with borate complex 11–13 (Table ). We tested compounds 11–13 in the NADH assay buffer to see whether these compounds could contribute to the rate of NADH fluorescence reduction (Figures S7–S9). No significant deviations were found in the rate of NADH consumption compared to the control sample (0.1 v/v% DMSO).
Isolation of Microsomal Membrane Vesicles from mouse hearts was done according to procedure described earlier. All animal procedures were performed in accordance with national and institutional regulations.
Mouse ventricular microsomes (4–5 μg of total protein) were diluted in 100 μL of the assay buffer used for measurement of SERCA activity (described below) and incubated at room temperature for 10 min prior to the experiments. The measurements of SERCA2 activity were made at 25 °C by using a NADH -coupled ATPase assay as described in Radnai et al. with slight modifications. Briefly, the assay buffer contained 60 mM MOPS, 120 mM KCl, 6 mM MgCl2, 1 mM EGTA, 5 mM NaN3, 0.5 mM phosphoenolpyruvate and 0.67 mM CaCl2, pH 7.0. Before the reaction was started by the injection of 10 μL ATP (resulting in 2 mM final concentration in the well), 5 units/mL of both lactate dehydrogenase and pyruvate kinase, 0.5 mM NADH, and 1 μM Ca^2+ ionophore A-23187 (Sigma, C-7522) were added to the diluted sample with or without the tested compound (volume −150 μL). […] The NADH fluorescence decrease was recorded each 2 s for 5 min course on a FlexStation 3 Multi-Mode Microplate Reader in 96-well glass bottom plates (MatTek Corporation; Cat. No. PBK96G-1.5-5-F). Fluorescence was evoked by 380 nm excitation wavelength and collected in a bottom-read mode at 425 nm, cutoff–470 nm, 4 flashes per read. ATP was injected at 60 s, speed–125 μL/s, pipet height–140 μL. The data were analyzed with computer software GraphPad Prism version 8.3.1 (GraphPad Software, Inc.). The difference in signal decrease with and without microsomes was taken as an indicator for the additional ATPase activity performed by SERCA2. The obtained values for maximal SERCA2 activity were normalized for total protein concentration. Maximal SERCA2 activity values are reported as percentages of control (0.1% DMSO) values. Microsomal samples that were kept on ice until usage and set to 100%.

[5] = target: SERCA2 (Mus musculus, UniProt O55143); experiment: Caffeine induced calcium release assay on live HL-1 cardiomyocytes; assay type: cell-based; details: for activation of SERCA2 in HL-1: 10 μM, percentage from the control sample (100%), mean ± SEM; for EC50: 2 h preincubation, 10 mM caffeine, read-out: activation of SERCA2 in HL-1, EC50 (converted);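 on all read-outs here: Read-out: caffeine-evoked peak minus basal fluorescence (ΔF Caff) of cytoplasmic FLIPR Calcium 6 dye, recorded for 1 min, compared with Tyrode's solution plus 0.1 v/v% DMSO as control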
[6] = target: T3, SERCA2b (Homo sapiens, UniProt P16615); experiment: NADH fluorescence-coupled ATPase assay on microsomal membranes isolated from HEK-293T cells; assay type: biochemical; details: 10 µM, HEK-293T microsomal membranes
T3 construct: endogenous in cells; host or cells: HEK-293T cells, microsomal membranes
From the text: HL-1 cells are known to express cardiac SERCA2a. […] HL-1 cells are in fact derived from mouse atrial cardiomyocytes that coexpress SERCA2a and SERCA2b. , We assumed that such behavior of compounds 1 and 5 is associated with their selective action on additional SERCA2 isoform present in these cells.

[7] = PermeaPad membrane permeability; assay type: in vitro ADME; details: not told, room temperature, class low/medium in parentheses, read-out: P e (permeability rate)
From the text: We determined permeability rates (P e ), which are a measure of how fast a compound can cross a membrane, using cell-free transport models (PermeaPad, innoME GmbH) The CA derivatives have medium to low permeability rates in the range 1.0–24.0 nm/s (Table ). Similar to S36, despite poor permeability, compounds 2–4, 8, and 9 acted on live RyR2-HEK-293 R-CEPIA1er cells inhibiting RyR2. […] Since PermeaPad is an artificial model that primarily reflects passive diffusion, it is likely that additional mechanisms contribute to the crossing of cell membranes by these compounds.
Membrane permeability was assessed using PermeaPad Plate according to the manufacturing procedure (innoME GmbH, Espelkamp, Germany). Briefly, 200 μL (V A) water was added into acceptor plate. 200 μL (V D) of 100–500 μM test compound in water was added directly to the well membranes of the donor plate. The donor plate contains a biomimetic membrane for simulating passive mass transfer through different barriers in the body. Then the donor plate was placed into the acceptor plate wells and incubated at room temperature for 24 h in dark. To determine peak absorbance of test compounds, absorbance spectra of acceptor solutions and initial solutions for each test compound were read out. The Permeability Rate (P e) was calculated using the formula:
P e = C × −ln (1 – ODA/ODB) cm/s, where OD A is the absorbance of acceptor solution, OD B is the absorbance of the standard solution; if the compound is able to permeabilize the membrane and fully reach equilibrium, 250 μM will be the final concentration of solution in the donor and acceptor wells. The coefficient C was calculated using the formula: C=VD×VA/(VD+VA)×Area×time where V A–acceptor volume (cm^3), V D–donor volume (cm^3), membrane area 0.24 cm^2, time is 86,400 s.

[8] = tested on: HL-1 cells; experiment: CytoTox-Glo Cytotoxicity Assay; assay type: cell-based; details: 24 h, concentrations up to 1 μM
Experimental: Cell viability was assessed using CytoTox-Glo Cytotoxicity Assay according to the manufacturing procedure (Promega GmbH). Briefly, HL-1 cells were cultivated for 24 h in black-walled, clear-bottom 96-well microplates (Corning) covered with fibronectin/gelatin in DMEM, containing different concentrations of the tested compound (10,000 cells/well). Luminescence of a luminogenic peptide substrate was measured before and after addition of the lysis reagent (digitonin). The viable cell contribution was determined by a subtractive method. 0.1% DMSO treated cell were taken as a control.

human NaV1.5, sequence (Q14524 1-460 limits assumed): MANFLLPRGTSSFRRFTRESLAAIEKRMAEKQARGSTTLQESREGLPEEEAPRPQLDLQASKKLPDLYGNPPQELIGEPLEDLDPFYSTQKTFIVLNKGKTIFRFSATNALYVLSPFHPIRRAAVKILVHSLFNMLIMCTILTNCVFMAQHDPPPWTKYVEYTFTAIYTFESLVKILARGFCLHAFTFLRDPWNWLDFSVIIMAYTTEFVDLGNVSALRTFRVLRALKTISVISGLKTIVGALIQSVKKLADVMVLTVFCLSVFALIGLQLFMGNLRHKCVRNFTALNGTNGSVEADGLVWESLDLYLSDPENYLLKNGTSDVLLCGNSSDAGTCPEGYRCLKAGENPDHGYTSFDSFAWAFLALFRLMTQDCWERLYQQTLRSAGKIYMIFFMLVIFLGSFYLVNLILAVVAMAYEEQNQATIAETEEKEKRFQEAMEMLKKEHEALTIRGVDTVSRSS
human NaV1.5, sequence (Q14524 661-1004 limits assumed): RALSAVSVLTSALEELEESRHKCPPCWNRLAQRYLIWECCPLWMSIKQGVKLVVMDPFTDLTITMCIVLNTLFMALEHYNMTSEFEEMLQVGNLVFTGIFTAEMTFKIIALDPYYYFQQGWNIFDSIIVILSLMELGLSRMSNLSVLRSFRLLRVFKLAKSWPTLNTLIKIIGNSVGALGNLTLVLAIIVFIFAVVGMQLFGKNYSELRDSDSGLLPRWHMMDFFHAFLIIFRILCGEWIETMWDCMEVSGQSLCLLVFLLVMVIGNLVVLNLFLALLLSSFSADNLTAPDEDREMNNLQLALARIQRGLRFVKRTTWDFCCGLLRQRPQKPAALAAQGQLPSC
human NaV1.5, sequence (Q14524 1142-2016 limits assumed): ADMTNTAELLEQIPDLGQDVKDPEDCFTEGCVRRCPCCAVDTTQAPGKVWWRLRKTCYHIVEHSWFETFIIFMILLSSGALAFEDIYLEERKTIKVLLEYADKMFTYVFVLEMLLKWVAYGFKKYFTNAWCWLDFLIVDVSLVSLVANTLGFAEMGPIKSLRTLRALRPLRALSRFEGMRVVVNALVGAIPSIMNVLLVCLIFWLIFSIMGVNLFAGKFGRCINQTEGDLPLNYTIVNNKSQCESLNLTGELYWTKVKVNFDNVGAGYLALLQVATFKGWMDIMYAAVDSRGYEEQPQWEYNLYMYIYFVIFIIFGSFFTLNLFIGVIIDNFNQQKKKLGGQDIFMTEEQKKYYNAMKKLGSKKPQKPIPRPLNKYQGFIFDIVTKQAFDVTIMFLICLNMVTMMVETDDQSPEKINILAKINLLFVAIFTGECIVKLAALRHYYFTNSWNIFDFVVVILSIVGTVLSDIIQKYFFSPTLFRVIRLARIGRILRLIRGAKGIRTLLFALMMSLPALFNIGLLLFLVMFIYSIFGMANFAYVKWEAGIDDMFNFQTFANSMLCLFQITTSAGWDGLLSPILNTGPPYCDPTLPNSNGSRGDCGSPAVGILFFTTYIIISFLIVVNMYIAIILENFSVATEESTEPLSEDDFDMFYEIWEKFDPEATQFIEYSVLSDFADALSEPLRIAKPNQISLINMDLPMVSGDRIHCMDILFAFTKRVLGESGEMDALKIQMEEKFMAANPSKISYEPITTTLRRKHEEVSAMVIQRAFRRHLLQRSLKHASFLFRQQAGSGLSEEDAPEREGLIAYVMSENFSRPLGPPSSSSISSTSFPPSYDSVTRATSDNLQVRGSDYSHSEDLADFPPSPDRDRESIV
T2 sequence (O55143 1-998 isoform O55143-2): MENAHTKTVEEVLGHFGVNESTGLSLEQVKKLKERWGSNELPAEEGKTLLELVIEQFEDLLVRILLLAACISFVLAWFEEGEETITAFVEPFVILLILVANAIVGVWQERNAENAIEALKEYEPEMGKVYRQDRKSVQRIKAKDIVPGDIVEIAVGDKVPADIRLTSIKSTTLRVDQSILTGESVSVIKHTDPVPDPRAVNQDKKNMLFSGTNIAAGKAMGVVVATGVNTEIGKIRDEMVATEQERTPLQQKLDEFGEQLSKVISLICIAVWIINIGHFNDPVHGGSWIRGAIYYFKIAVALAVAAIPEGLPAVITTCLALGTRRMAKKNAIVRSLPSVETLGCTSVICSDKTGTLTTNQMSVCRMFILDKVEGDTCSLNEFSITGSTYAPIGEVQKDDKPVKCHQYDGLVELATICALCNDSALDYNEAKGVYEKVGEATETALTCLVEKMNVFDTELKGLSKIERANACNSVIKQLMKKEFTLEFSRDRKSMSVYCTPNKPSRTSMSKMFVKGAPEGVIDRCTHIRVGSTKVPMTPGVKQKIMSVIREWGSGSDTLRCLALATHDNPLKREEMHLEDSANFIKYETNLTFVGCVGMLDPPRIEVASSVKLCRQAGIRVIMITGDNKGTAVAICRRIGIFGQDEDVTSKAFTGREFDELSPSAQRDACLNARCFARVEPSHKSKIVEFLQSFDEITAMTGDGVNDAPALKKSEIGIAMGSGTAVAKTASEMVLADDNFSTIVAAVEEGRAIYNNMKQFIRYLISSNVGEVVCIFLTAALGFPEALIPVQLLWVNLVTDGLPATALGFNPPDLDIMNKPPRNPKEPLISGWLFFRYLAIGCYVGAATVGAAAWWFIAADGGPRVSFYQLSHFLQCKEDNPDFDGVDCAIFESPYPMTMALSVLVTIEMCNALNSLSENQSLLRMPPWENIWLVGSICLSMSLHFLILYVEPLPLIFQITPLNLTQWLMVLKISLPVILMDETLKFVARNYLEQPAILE
SERCA2, sequence (O55143 1-994 limits assumed): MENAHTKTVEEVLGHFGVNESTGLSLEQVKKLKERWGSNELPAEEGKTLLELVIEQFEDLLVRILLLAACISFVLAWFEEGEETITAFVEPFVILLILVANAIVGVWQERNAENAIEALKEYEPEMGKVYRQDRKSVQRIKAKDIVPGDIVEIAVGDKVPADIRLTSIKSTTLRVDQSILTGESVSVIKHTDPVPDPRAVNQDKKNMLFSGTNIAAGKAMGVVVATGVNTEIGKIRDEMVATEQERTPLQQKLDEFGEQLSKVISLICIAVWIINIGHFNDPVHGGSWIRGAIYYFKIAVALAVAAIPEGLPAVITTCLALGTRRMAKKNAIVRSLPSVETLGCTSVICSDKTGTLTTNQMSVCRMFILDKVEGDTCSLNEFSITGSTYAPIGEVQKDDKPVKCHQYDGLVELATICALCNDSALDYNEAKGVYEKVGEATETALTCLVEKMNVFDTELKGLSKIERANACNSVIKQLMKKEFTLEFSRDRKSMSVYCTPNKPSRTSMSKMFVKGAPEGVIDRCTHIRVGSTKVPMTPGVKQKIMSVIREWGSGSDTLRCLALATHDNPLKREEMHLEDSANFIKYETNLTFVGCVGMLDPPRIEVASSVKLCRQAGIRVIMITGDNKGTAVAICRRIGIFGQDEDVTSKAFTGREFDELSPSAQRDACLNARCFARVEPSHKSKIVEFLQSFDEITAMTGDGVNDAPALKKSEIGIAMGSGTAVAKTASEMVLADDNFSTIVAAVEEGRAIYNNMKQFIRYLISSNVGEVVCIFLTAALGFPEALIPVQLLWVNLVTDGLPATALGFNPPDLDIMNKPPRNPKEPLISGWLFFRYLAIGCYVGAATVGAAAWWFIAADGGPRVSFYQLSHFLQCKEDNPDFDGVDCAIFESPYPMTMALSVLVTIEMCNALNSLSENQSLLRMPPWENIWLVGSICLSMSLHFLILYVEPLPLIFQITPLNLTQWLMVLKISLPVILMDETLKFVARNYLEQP
T3 sequence (P16615 whole entry): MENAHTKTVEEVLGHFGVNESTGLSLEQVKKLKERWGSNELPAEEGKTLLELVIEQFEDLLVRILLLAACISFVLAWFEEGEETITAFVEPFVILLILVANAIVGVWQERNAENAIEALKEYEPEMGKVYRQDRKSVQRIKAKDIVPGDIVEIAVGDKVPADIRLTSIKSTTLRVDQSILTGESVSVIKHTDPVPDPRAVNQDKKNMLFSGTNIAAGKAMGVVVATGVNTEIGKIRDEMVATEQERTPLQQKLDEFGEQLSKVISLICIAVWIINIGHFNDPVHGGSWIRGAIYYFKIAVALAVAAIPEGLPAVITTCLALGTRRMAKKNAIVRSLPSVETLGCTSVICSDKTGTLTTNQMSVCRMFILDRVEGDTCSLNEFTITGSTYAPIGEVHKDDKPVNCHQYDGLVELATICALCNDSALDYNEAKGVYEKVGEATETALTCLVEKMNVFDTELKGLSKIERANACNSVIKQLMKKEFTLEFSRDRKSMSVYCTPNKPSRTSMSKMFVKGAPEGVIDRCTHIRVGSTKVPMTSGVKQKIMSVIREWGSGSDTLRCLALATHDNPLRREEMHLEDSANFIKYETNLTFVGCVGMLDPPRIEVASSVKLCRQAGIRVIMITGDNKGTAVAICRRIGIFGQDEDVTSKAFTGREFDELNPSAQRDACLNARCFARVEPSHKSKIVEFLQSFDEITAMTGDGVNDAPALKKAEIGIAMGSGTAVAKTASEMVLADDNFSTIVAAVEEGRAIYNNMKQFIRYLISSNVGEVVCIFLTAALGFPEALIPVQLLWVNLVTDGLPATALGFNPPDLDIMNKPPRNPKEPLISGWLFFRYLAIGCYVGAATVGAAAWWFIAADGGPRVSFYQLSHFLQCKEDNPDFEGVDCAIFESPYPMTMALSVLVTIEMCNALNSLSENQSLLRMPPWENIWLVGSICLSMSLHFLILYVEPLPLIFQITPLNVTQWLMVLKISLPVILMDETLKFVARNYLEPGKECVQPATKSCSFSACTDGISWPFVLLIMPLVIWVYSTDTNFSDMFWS

Row | Structure (SMILES) | P e (permeability rate) [1] | effect on NaV1.5 activity (in words) [2] | effect on RyR2 activity / [Ca2+]ER (in words) [3] | RyR2 activity [3] [%] | effect on SERCA2a ATPase activity (in words) [4] | ATPase activity of SERCA2a in mouse SER [4] [%] | activation of SERCA2 in HL-1 [5] [%] | EC50 ([5]; HL-1 cells) | NaV1.5 activity in CHO cells [2] [%] | effect on ATPase activity (in words) [6] | Papp at 24 h [7] [×10⁻⁶ cm/s] | EC50 [4] | stimulatory effect compared to the control ([5]; HL-1 cells, from 1 to 10 μM, bell-shaped dose response, decreased at higher doses) | viability of HL-1 cells (in words) [8]
1 | COc1ccc2c(c1)CN(C(=O)C(=O)O)CCS2 [Compound S36, reference compound] | 1.0 (low, ref ) 10^–6 cm/s | no effect on NaV1.5 activity | increase in R-CEPIA1er fluorescence | 103.4 ± 0.7 |  |  |  |  |  |  |  |  |  | 
2 | COc1ccc2c(c1)CN(CCCCNC(=O)/C=C/c1ccc(O)c(O)c1)CCS2 [Compound 5] |  |  | did not affect the RyR2 activity | 100.5 ± 0.8 | did not evoke a significant increase in ATPase activity | 109.0 ± 4.0 | 190.6 ± 6.6 | 9 µM and 9.1 µM | 97.7 ± 1.9 | significantly increased the ATPase activity | 0.9 |  |  | 
3 | COc1ccc2c(c1)CN(CCCCCCCC[NH+]([BH2-]C#N)C/C=C/c1ccc(O)c(O)c1)CCS2 (stereo not drawn) [Compound 13] |  |  | significantly increased [Ca^2+]ER | 103.0 ± 0.4 |  | 115.5 ± 3.7 | 299.1 ± 12.8 | 2.5 µM | 83.3 ± 0.9 |  | 0.1 | 0.023 µM and 0.0231 µM | up to 300% | remained unchanged
4 | COc1ccc2c(c1)CN(CCCCCCCCNC/C=C/c1ccc(O)c(O)c1)CCS2 [Compound 9] |  | no effect on NaV1.5 | significantly increased [Ca^2+]ER | 105.7 ± 0.4 |  | 113.1 ± 2.1 | 164.0 ± 3.0 | 10.9 µM | 106.0 ± 1.0 |  | 0.4 | 0.041 µM and 0.0412 µM |  | remained unchanged
5 | COc1ccc(OCCCNC(=O)/C=C/c2ccc(O)c(O)c2)cc1 [Compound 1, (E)-3-(3,4-Dihydroxyphenyl)-N-(3-(4-methoxyphenyloxy)propyl)acrylamide] |  |  | did not affect the RyR2 activity | 100.8 ± 1.3 | did not evoke a significant increase in ATPase activity | 98.2 ± 6.5 | 157.7 ± 7.1 | 15 µM and 14.9 µM | 91.8 ± 1.0 | significantly increased the ATPase activity | 1.8 |  |  | 
